From PubChem BioAssay AID248 (DTP/NCI, 2004)
Where “and” joins values, the source holds several entries; their conditions need not be identical. Equal values may be shown once. Toxic doses and inconclusive results are not listed. Rule as the data show it: active = T/C of 150% or more; inactive = T/C below 125%.

Tested on: L1210 leukemia ip in BDF1 mice, survival T/C
Assay: NCI In Vivo Anticancer Drug Screen. Data for tumor model L1210 Leukemia (intraperitoneal) in B6D2F1 (BDF1) mice
Conditions: endpoint: mean survival time, higher = longer survival
Summary of the method: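 Each compound was tested against a transplantable tumor grown in mice. The endpoint was survival, with treated animals benchmarked against vehicle controls as a simple ratio.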

[1] = dose: 100.0 mg/kg/injection, schedule: Q01DX001 (ip), vehicle: saline
[2] = dose: 200.0 mg/kg/injection, schedule: Q01DX001 (ip), vehicle: saline
[3] = dose: 400.0 mg/kg/injection, schedule: Q01DX001 (ip), vehicle: saline
[4] = dose: 100.0 mg/kg/injection, schedule: Q01DX001 (ip), vehicle: Klucel (hydroxypropylcellulose) (HPC)
[5] = dose: 200.0 mg/kg/injection, schedule: Q01DX001 (ip), vehicle: Klucel (hydroxypropylcellulose) (HPC)
[6] = dose: 400.0 mg/kg/injection, schedule: Q01DX001 (ip), vehicle: Klucel (hydroxypropylcellulose) (HPC)
[7] = dose: 50.0 mg/kg/injection, schedule: Q01DX009 (ip), vehicle: saline with Tween-80
[8] = dose: 100.0 mg/kg/injection, schedule: Q01DX009 (ip), vehicle: saline with Tween-80
[9] = dose: 200.0 mg/kg/injection, schedule: Q01DX009 (ip), vehicle: saline with Tween-80
[10] = dose: 50.0 mg/kg/injection, schedule: Q01DX009 (ip), vehicle: saline
[11] = dose: 400.0 mg/kg/injection, schedule: Q01DX009 (ip), vehicle: saline with Tween-80
[12] = dose: 50.0 mg/kg/injection, schedule: Q01DX001 (ip), vehicle: saline

Measured: T/C

CC(c1ccccc1)N(N=O)C(=O)c1ccc2ccccc2c1 (stereo unspecified)
inactive: dose: 17.0 mg/kg/injection, schedule: Q04DX002 (ip), vehicle: saline 94 % of control | dose: 33.0 mg/kg/injection, schedule: Q04DX002 (ip), vehicle: saline 105 % of control | dose: 66.0 mg/kg/injection, schedule: Q04DX002 (ip), vehicle: saline 97 % of control

O=C(OC1CCC/C=C\CCCC1)c1ccc([N+](=O)[O-])cc1 (stereo unspecified)
inactive: [1] 93 % of control | [2] 98 % of control | [3] 96 % of control

CN(C)c1ccc(C=Nc2cccc([N+](=O)[O-])c2)cc1
inactive: [4] 91 % of control | [5] 86 % of control | [6] 90 % of control

CCC1CN2CCc3cc(OC)c(OC)cc3C2CC1=O (stereo unspecified)
inactive: [7] 102 % of control | [8] 103 % of control and 108 % of control | [9] 124 % of control

CCOC(=O)c1cnc2ccccn2c1=O
inactive: [10] 96 % of control | dose: 100.0 mg/kg/injection, schedule: Q01DX001 (ip), vehicle: saline with Tween-80 92 % of control | dose: 100.0 mg/kg/injection, schedule: Q01DX009 (ip), vehicle: saline 93 % of control | dose: 100.0 mg/kg/injection, schedule: Q04DX003 (ip), vehicle: saline 92 % of control | dose: 200.0 mg/kg/injection, schedule: Q01DX001 (ip), vehicle: saline with Tween-80 94 % of control | dose: 200.0 mg/kg/injection, schedule: Q01DX009 (ip), vehicle: saline 101 % of control | dose: 200.0 mg/kg/injection, schedule: Q04DX003 (ip), vehicle: saline 94 % of control

O=C(c1ccc([N+](=O)[O-])cc1)C(Br)C(Br)c1ccncc1 (stereo unspecified)
inactive: dose: 100.0 mg/kg/injection, schedule: Q01DX009 (ip), vehicle: Klucel (hydroxypropylcellulose) (HPC) 89 % of control | dose: 200.0 mg/kg/injection, schedule: Q01DX009 (ip), vehicle: Klucel (hydroxypropylcellulose) (HPC) 89 % of control | dose: 400.0 mg/kg/injection, schedule: Q01DX009 (ip), vehicle: Klucel (hydroxypropylcellulose) (HPC) 93 % of control

CCOc1ccc(/C=N/NC(=O)CC2CCCCC2)cc1OC
inactive: [8] 90 % of control | [9] 88 % of control | [11] 90 % of control

O=[N+]([O-])c1cc([N+](=O)[O-])c(NN(c2ccccc2)c2ccccc2)c([N+](=O)[O-])c1
inactive: dose: 12.5 mg/kg/injection, schedule: Q01DX Z (ip), vehicle: other 106 % of control | dose: 25.0 mg/kg/injection, schedule: Q01DX Z (ip), vehicle: other 102 % of control | dose: 100.0 mg/kg/injection, schedule: Q04DX003 (ip), vehicle: Klucel (hydroxypropylcellulose) (HPC) 92 % of control | dose: 200.0 mg/kg/injection, schedule: Q04DX003 (ip), vehicle: Klucel (hydroxypropylcellulose) (HPC) 88 % of control | dose: 400.0 mg/kg/injection, schedule: Q04DX003 (ip), vehicle: Klucel (hydroxypropylcellulose) (HPC) 91 % of control

O=C(Nc1ccc(CN2CCOCC2)cc1)c1ccc(C(=O)Nc2ccc(CN3CCOCC3)cc2)cc1
inactive: dose: 37.5 mg/kg/injection, schedule: Q01DX Z (ip), vehicle: water 86 % of control | dose: 75.0 mg/kg/injection, schedule: Q01DX Z (ip), vehicle: water 91 % of control

CC1=CN(C)C(=O)CC1
inactive: dose: 100.0 mg/kg/injection, schedule: Q01DX001 (ip), vehicle: acetone 96 % of control | dose: 200.0 mg/kg/injection, schedule: Q01DX001 (ip), vehicle: acetone 96 % of control | dose: 400.0 mg/kg/injection, schedule: Q01DX001 (ip), vehicle: acetone 104 % of control

CCCCCCCCC1SC1CCCCCCCC(=O)OCCOCCOCC (stereo unspecified)
inactive: [8] 95 % of control | [9] 92 % of control | [11] 95 % of control

Nc1ccn(CCCCc2ccccc2)c(=O)n1
inactive: dose: 100.0 mg/kg/injection, schedule: Q01DX001 (ip), vehicle: gum acacia 93 % of control | dose: 200.0 mg/kg/injection, schedule: Q01DX001 (ip), vehicle: gum acacia 95 % of control | dose: 400.0 mg/kg/injection, schedule: Q01DX001 (ip), vehicle: gum acacia 91 % of control

COc1cc(NC(=O)Nc2c(C)cc(I)cc2C(=O)O)c(I)cc1I
inactive: dose: 75.0 mg/kg/injection, schedule: Q01DX001 (ip), vehicle: other 87 % of control | dose: 150.0 mg/kg/injection, schedule: Q01DX001 (ip), vehicle: other 92 % of control | dose: 300.0 mg/kg/injection, schedule: Q01DX001 (ip), vehicle: other 91 % of control

COC1OC(COS(C)(=O)=O)C(OS(C)(=O)=O)C(OC(=O)c2ccccc2)C1OC(=O)c1ccccc1 (stereo unspecified)
inactive: dose: 100.0 mg/kg/injection, schedule: Q04DX002 (ip), vehicle: Klucel (hydroxypropylcellulose) (HPC) 109 % of control | dose: 200.0 mg/kg/injection, schedule: Q04DX002 (ip), vehicle: Klucel (hydroxypropylcellulose) (HPC) 101 % of control | dose: 400.0 mg/kg/injection, schedule: Q04DX002 (ip), vehicle: Klucel (hydroxypropylcellulose) (HPC) 101 % of control

C=CC1CN2CCC1CC2C(=O)c1ccnc2ccc(OC)cc12 (stereo unspecified)
inactive: [12] 98 % of control | [1] 102 % of control | [2] 95 % of control | [3] 101 % of control

CC/C=C(/C)CCC
inactive: dose: 100.0 mg/kg/injection, schedule: Q04DX003 (ip), vehicle: saline with Tween-80 93 % of control | dose: 200.0 mg/kg/injection, schedule: Q04DX003 (ip), vehicle: saline with Tween-80 93 % of control | dose: 400.0 mg/kg/injection, schedule: Q04DX003 (ip), vehicle: saline with Tween-80 98 % of control

O=C(CNC(=O)Nc1cccc(Cl)c1)N/N=C/c1cccc([N+](=O)[O-])c1
inactive: [7] 98 % of control | [8] 95 % of control | [9] 98 % of control

O=C1CCCC2C1CCCC21OCCO1 (stereo unspecified)
inactive: [1] 96 % of control | [2] 96 % of control | [3] 96 % of control

CCC(Cl)COP(=O)(OCC(Cl)CC)C(CC)CCl (stereo unspecified)
inactive: dose: 100.0 mg/kg/injection, schedule: Q01DX001 (ip), vehicle: carboxymethylcellulose (CMC) 93 % of control | dose: 100.0 mg/kg/injection, schedule: Q01DX009 (ip), vehicle: carboxymethylcellulose (CMC) 98 % of control and 91 % of control | dose: 100.0 mg/kg/injection, schedule: Q04DX002 (ip), vehicle: carboxymethylcellulose (CMC) 94 % of control and 95 % of control | dose: 100.0 mg/kg/injection, schedule: Q04DX003 (ip), vehicle: carboxymethylcellulose (CMC) 101 % of control | dose: 200.0 mg/kg/injection, schedule: Q01DX001 (ip), vehicle: carboxymethylcellulose (CMC) 96 % of control | dose: 200.0 mg/kg/injection, schedule: Q01DX009 (ip), vehicle: carboxymethylcellulose (CMC) 94 % of control and 103 % of control | dose: 200.0 mg/kg/injection, schedule: Q04DX002 (ip), vehicle: carboxymethylcellulose (CMC) 95 % of control and 102 % of control | dose: 200.0 mg/kg/injection, schedule: Q04DX003 (ip), vehicle: carboxymethylcellulose (CMC) 96 % of control | dose: 400.0 mg/kg/injection, schedule: Q01DX001 (ip), vehicle: carboxymethylcellulose (CMC) 96 % of control | dose: 400.0 mg/kg/injection, schedule: Q01DX009 (ip), vehicle: carboxymethylcellulose (CMC) 105 % of control and 106 % of control | dose: 400.0 mg/kg/injection, schedule: Q04DX002 (ip), vehicle: carboxymethylcellulose (CMC) 94 % of control and 95 % of control | dose: 400.0 mg/kg/injection, schedule: Q04DX003 (ip), vehicle: carboxymethylcellulose (CMC) 98 % of control

CCCC(CC(=O)O)OC (stereo unspecified)
inactive: [1] 103 % of control | [2] 110 % of control | [3] 110 % of control

Nc1ccc(S(=O)(=O)F)c(Cl)c1
inactive: [1] 102 % of control | [2] 98 % of control | [3] 98 % of control

c1ccc2sc(SN3CCCCC3)nc2c1
inactive: [4] 103 % of control | [5] 97 % of control | [6] 94 % of control

CC(C)(CC(N)=O)C(=O)O
inactive: [12] 102 % of control | [1] 115 % of control | [2] 113 % of control | [3] 110 % of control

CCCCN(CCCC)CC(O)c1ccccc1 (stereo unspecified)
inactive: dose: 25.0 mg/kg/injection, schedule: Q01DX005 (ip), vehicle: saline 112 % of control | dose: 25.0 mg/kg/injection, schedule: Q01DX009 (ip), vehicle: saline 95 % of control | dose: 25.0 mg/kg/injection, schedule: Q04DX002 (ip), vehicle: saline with Tween-80 102 % of control | dose: 50.0 mg/kg/injection, schedule: Q01DX005 (ip), vehicle: saline 108 % of control | [10] 107 % of control | dose: 50.0 mg/kg/injection, schedule: Q04DX002 (ip), vehicle: saline with Tween-80 106 % of control | dose: 100.0 mg/kg/injection, schedule: Q01DX005 (ip), vehicle: saline 101 % of control | dose: 100.0 mg/kg/injection, schedule: Q04DX002 (ip), vehicle: saline with Tween-80 93 % of control

O=C(O)C1=NNC(C(=O)O)=NN1
inactive: [4] 92 % of control | [5] 100 % of control | [6] 104 % of control
